{
  "source": "patent US9296694B2",
  "about": "“Azacyclic compounds” (ACADIA Pharmaceuticals Inc., priority 2000, dated 2016)",
  "test_in_all_cases": "R-SAT selectivity profile of 26HCH16D",
  "assay_type_in_all_cases": "cell-based",
  "key": {"H1": {"biological_target": "T1, H1 (Homo sapiens, UniProt P35367)", "T1 construct": "expressed in transfected cells; host or cells: NIH3T3, pSI vector", "T1 sequence (P35367 whole entry)": "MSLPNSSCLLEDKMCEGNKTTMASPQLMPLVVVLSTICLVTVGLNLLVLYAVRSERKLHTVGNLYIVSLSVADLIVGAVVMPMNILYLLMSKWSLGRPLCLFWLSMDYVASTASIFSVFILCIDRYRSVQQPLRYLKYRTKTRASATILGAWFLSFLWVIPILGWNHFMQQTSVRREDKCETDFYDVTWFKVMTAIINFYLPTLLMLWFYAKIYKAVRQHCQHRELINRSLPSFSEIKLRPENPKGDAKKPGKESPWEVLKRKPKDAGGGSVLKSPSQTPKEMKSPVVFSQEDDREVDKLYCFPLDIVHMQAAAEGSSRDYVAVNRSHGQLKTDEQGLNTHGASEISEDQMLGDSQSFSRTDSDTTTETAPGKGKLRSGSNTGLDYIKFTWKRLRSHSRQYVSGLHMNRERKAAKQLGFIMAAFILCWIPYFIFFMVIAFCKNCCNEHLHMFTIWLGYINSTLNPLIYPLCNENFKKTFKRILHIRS", "description": "(§1) The functional receptor assay, Receptor Selection and Amplification Technology (R-SAT), was used (with minor modifications from that previously described U.S. Pat. No. 5,707,798) to screen compounds for efficacy at the 5-HT2A receptor. Briefly, NIH3T3 cells were grown in 96 well tissue culture plates to 70-80% confluence. Cells were transfected for 12-16 hours with plasmid DNAs using superfect (Qiagen Inc.) as per manufacture's protocols. R-SAT's were generally performed with 50 ng/well of receptor and 20 ng/well of Beta-galactosidase plasmid DNA. All receptor and G-protein constructs used were in the pSI mammalian expression vector (Promega Inc) as described in U.S. Pat. No. 5,707,798. The 5HT2A receptor gene was amplified by nested PCR from brain cDNA using the oligodeoxynucleotides based on the published sequence (see Saltzman et. al. Biochem. Biophys. Res. Comm. 181:1469-78 (1991)). Large-scale transfections, cells were transfected for 12-16 hours, then trypsinized and frozen in DMSO. Frozen cells were later thawed, plated at 10,000-40,000 cells per well of a 96 well plate that contained drug. With both methods, cells were then grown in a humidified atmosphere with 5% ambient CO2 for five days. Media was then removed from the plates and marker gene activity was measured by the addition of the beta-galactosidase substrate ONPG (in PBS with 5% NP-40). The resulting colorimetric reaction was measured in a spectrophotometric plate reader (Titertek Inc.) at […]. All data were analyzed using the computer program XLFit (IDBSm). Efficacy is the percent maximal repression compared to repression by a control compound (ritanserin in the case of 5HT2A). pIC50 is the negative of the log(IC50), where IC50 is the calculated concentration in Molar that produces 50% maximal repression.\n(§2) R-SAT assays (as described in Example 42) were carried out with cells transfected with receptors (listed below) to determine the receptor selectivity profile for compound 26HCH16D. 5HT2A inverse agonist data (IC50 nM; % efficacy) were derived from detailed dose response curves (7 points in triplicate)."}, "D2": {"biological_target": "T2, D2 (Homo sapiens, UniProt P14416)", "T2 construct": "expressed in transfected cells; host or cells: NIH3T3, pSI vector", "T2 sequence (P14416 whole entry)": "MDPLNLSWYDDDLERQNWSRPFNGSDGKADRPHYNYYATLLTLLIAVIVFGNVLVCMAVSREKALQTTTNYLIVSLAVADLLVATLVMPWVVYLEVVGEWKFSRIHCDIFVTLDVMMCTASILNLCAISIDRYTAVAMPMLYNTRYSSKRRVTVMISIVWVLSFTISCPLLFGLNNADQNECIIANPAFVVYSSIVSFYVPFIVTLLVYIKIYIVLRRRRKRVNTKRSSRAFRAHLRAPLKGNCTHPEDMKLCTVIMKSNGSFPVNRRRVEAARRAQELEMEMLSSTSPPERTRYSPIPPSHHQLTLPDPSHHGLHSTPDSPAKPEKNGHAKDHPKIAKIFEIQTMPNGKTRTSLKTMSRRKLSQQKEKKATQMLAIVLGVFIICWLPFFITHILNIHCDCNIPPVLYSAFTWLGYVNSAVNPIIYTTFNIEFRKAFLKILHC", "description": "as §1, §2"}, "alpha1c/A": {"biological_target": "T3, alpha1c/A (Homo sapiens, UniProt P35348)", "T3 construct": "expressed in transfected cells; host or cells: NIH3T3, pSI vector", "T3 sequence (P35348 1-466)": "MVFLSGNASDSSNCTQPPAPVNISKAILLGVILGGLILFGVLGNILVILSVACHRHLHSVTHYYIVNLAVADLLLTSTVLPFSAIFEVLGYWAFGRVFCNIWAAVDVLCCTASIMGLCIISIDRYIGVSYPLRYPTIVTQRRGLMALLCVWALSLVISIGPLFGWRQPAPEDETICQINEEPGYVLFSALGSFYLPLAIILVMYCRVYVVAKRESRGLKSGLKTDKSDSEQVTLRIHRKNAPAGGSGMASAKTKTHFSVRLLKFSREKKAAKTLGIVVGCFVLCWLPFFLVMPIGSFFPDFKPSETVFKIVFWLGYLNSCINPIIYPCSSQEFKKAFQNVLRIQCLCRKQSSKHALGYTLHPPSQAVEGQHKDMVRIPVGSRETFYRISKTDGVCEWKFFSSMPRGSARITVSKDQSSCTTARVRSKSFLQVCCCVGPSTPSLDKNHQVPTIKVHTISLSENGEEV", "description": "as §1, §2"}, "5HT2C": {"biological_target": "T4, 5HT2C (Homo sapiens, UniProt P28335)", "T4 construct": "expressed in transfected cells; host or cells: NIH3T3, pSI vector", "T4 sequence (P28335 33-458)": "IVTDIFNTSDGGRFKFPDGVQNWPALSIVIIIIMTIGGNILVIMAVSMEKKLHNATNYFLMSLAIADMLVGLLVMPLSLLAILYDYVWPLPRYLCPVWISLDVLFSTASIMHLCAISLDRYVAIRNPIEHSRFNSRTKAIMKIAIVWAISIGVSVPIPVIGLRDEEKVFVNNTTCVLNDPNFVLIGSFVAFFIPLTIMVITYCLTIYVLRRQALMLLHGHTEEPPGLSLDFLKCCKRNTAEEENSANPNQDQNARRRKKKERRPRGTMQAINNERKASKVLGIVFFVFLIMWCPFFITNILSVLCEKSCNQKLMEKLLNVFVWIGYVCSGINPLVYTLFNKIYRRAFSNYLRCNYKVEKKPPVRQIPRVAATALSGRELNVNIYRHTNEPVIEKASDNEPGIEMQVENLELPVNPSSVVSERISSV", "conditions": "Inverse Agonist; 4 dose profiling", "description": "as §1, §2"}, "5HT2B": {"biological_target": "T5, 5HT2B (Homo sapiens, UniProt P41595)", "T5 construct": "expressed in transfected cells; host or cells: NIH3T3, pSI vector", "T5 sequence (P41595 whole entry)": "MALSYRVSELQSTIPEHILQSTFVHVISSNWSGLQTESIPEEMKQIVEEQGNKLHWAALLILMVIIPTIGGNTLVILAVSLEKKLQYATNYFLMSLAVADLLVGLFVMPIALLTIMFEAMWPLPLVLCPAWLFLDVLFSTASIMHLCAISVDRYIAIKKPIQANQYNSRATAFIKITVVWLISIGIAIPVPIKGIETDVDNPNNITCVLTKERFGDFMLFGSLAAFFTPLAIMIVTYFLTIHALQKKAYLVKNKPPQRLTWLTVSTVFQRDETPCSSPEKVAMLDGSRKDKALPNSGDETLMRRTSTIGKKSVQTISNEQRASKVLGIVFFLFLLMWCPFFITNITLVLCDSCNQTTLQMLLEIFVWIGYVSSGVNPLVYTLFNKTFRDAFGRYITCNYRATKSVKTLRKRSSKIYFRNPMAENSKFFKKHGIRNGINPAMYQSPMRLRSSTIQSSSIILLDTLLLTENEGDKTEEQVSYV", "conditions": "Antagonist; 4 dose profiling", "description": "as §1, §2"}, "[1]": {"conditions": "Agonist, 4 doses in duplicate (3, 30, 300, 3000 nM)"}},
  "note": "Where a name gives a salt, the structure may show the parent alone.",
  "data": [
    {"smiles": "Cc1ccc(CN(C(=O)NCc2ccccc2)C2CCN(Cc3ccccc3)CC2)cc1", "note": "[Compound 26HCH16D, N-((4-Methylphenyl)methyl)-N-(1-(phenylmethyl)piperidin-4-yl)-N′-phenylmethylcarbamide hydrochloride]", "values": [
      {"measurement": "Efficacy", "setting": "H1; [1]", "value": "nr (nr=activity less than 30% at all doses tested (3, 30, 300, 3000 nM), therefore EC50/IC50 greater than 3000 nM))"},
      {"measurement": "initial concentration at which at least 30% efficacy observed", "setting": "H1; Antagonist, 4 dose profiling", "value": 3000, "unit": "nM"},
      {"measurement": "Efficacy", "setting": "D2; [1]", "value": "nr (nr=activity less than 30% at all doses tested (3, 30, 300, 3000 nM), therefore EC50/IC50 greater than 3000 nM))"},
      {"measurement": "initial concentration at which at least 30% efficacy observed", "setting": "D2; Antagonist, 4 dose profiling", "value": 3000, "unit": "nM"},
      {"measurement": "Efficacy", "setting": "alpha1c/A; [1]", "value": "nr (nr=activity less than 30% at all doses tested (3, 30, 300, 3000 nM), therefore EC50/IC50 greater than 3000 nM))"},
      {"measurement": "initial concentration at which at least 30% efficacy observed", "setting": "alpha1c/A; Antagonist, 4 dose profiling", "value": 3000, "unit": "nM"},
      {"measurement": "initial concentration at which at least 30% efficacy observed", "setting": "5HT2C", "value": 3000, "unit": "nM"},
      {"measurement": "initial concentration at which at least 30% efficacy observed", "setting": "5HT2B", "value": 3000, "unit": "nM"}
    ]}
  ]
}
